{"source": "patent US8501431B2", "about": "“Method for screening for compounds selectively interacting with RAD9” (Magnachem International Laboratories, Inc., priority 2008, dated 2013)", "tested_on": "mutant strains of Saccharomyces cereviseae (gene rad9)", "assay": "Bioassay on solid mediums with Securolide on mutant strains of Saccharomyces cereviseae", "format": "cell-based", "details": "concentration between ten and one hundred micrograms/milliliter, set of mutant strains, specifically the gene rad9", "protocol": "Bioassays on solid mediums were performed with Securolide (LMSV-6) in a concentration between ten and one hundred micrograms/milliliter on a set of mutant strains of Saccharomyces cereviseae with DNA similar to that in tumor/cancer cells.", "note": "“Also recorded” adds a separate entry of the source.", "data": [{"compound": "C=C1CCOC1=O", "note": "[Securolide]", "values": [{"measurement": "cytoxic activity", "result": "cell death of Rad9 mutant yeast strains; also recorded: marked cytoxic activity only on the mutant strains"}]}]}
